What follows are compounds tested on red blood cells (5% RBC suspension) (assay: Test Example 2-2: in vitro hemolytic activity test (upper limit 200 μmol/L)). Details: Erythrocyte, 1 h; Test Example 2-2; hemolysis method 200 (upper concentration 200 μmol/L); 5% RBC suspension, 37° C., one hour; read-out: hemolysis IC50.
Format: cell-based
Protocol: Nephrotoxic potentials of the compounds of the present invention whose X is —N(R^F)—CO—X^1 and X^1 is the group represented by formula (III) and T is —N(R^a5)— were investigated by in vitro hemolytic activity test under the condition that the upper limit was 200 μmol/L as the required concentration to 50% of hemolysis (IC50).
Defibrinated sterile blood was centrifuged at 700×g for 3 minutes and, and the supernatant was removed for 100% of red blood cells. After the cleaning with physiological saline, the washed blood cells was suspended in the medium (Earle's balanced salt sodium, bicarbonate, 0.1 g/L L-glutamine without phenol red), and was diluted by 5% (5% RBC suspension).
The washed blood was diluted by 5% in water for injection (solution of complete hemolysis), and was used as the indication of optical density for complete hemolysis.
The compounds of the present invention solution in DMSO (several and doubling dilutions starting from 10 mmol/L), DMSO as the negative control, and Amphotericin B as the positive control were used, and each 5 μL of these was added in to a well of V-form 96 well type microplate. Finally, the maximum concentration of the compounds of the present invention solution in DMSO was 200 μmol/L by adding 245 μL of the medium or 5% RBC suspension into the well.
Two hundred fifty μL of the solution of complete hemolysis was added into another well and the microplate was incubated at 37° C. in 5% of CO2 concentration for an hour.
After the incubation, each 100 μL of supernatants in wells was collected by centrifugation of the microplate at 300×g for 5 minutes and was located on a well of flat-form 96 well type microplate. An absorbance of each supernatant was measured at wavelength of 540 nm.
Percent hemolysis was calculated by using the followed equation. The required concentration to 50% of hemolysis (IC50) was calculated based on the percent hemolysis. […] Hemolysis (%)=(CR−VM)×100÷(VL−VR) Where:
CR: Absorbance of 5% RBC suspension incubated with the compounds of the present invention solution in DMSO
VM: Absorbance of medium incubated with the compounds of the present invention solution in DMSO
VL: Absorbance of solution of complete hemolysis
VR: Absorbance of 5% RBC suspension incubated with DMSO
The “>200” in the table means above IC50 value exceeded the upper concentration 200 μmol/L.

Row | SMILES | IC50 [µM]
1 | COC(=O)NNC(=O)N[C@H]1[C@@H]2C[C@@H](O[C@@H]3O[C@H](C)[C@@H](O)[C@H](N)[C@@H]3O)/C=C/C=C/C=C/C=C/C=C/C=C/C=C/[C@H](C)[C@@H](O)[C@@H](C)[C@H](C)OC(=O)C[C@H](O)C[C@H](O)CC[C@@H](O)[C@H](O)C[C@H](O)C[C@](O)(C[C@@H]1O)O2 [I-47] | > 200
2 | C[C@@H]1[C@H](O)[C@@H](C)/C=C/C=C/C=C/C=C/C=C/C=C/C=C/[C@H](O[C@@H]2O[C@H](C)[C@@H](O)[C@H](N)[C@@H]2O)C[C@@H]2O[C@](O)(C[C@@H](O)C[C@@H](O)[C@H](O)CC[C@@H](O)C[C@@H](O)CC(=O)O[C@H]1C)C[C@H](O)[C@H]2NC(=O)NNCCN(C)C [I-78] | > 200
3 | C[C@@H]1[C@H](O)[C@@H](C)/C=C/C=C/C=C/C=C/C=C/C=C/C=C/[C@H](O[C@@H]2O[C@H](C)[C@@H](O)[C@H](N)[C@@H]2O)C[C@@H]2O[C@](O)(C[C@@H](O)C[C@@H](O)[C@H](O)CC[C@@H](O)C[C@@H](O)CC(=O)O[C@H]1C)C[C@H](O)[C@H]2NC(=O)NNC(=O)[C@H](O)CO [I-223] | > 200

Same assay, conditions: Test Example 2-2; hemolysis method 200 (upper concentration 200 μmol/L); 5% RBC suspension, 37° C., one hour; read-out: hemolysis IC50

Row | SMILES | IC50 [µM]
4 | C[C@@H]1[C@H](O)[C@@H](C)/C=C/C=C/C=C/C=C/C=C/C=C/C=C/[C@H](O[C@@H]2O[C@H](C)[C@@H](O)[C@H](N)[C@@H]2O)C[C@@H]2O[C@](O)(C[C@@H](O)C[C@@H](O)[C@H](O)CC[C@@H](O)C[C@@H](O)CC(=O)O[C@H]1C)C[C@H](O)[C@H]2NC(=O)NNC(=O)c1ccccn1 [I-44] | > 200
5 | C[C@@H]1[C@H](O)[C@@H](C)/C=C/C=C/C=C/C=C/C=C/C=C/C=C/[C@H](O[C@@H]2O[C@H](C)[C@@H](O)[C@H](N)[C@@H]2O)C[C@@H]2O[C@](O)(C[C@@H](O)C[C@@H](O)[C@H](O)CC[C@@H](O)C[C@@H](O)CC(=O)O[C@H]1C)C[C@H](O)[C@H]2NC(=O)NNC(=O)CNC(=O)Nc1cccnc1 [I-123] | > 200
6 | C[C@@H]1[C@H](O)[C@@H](C)/C=C/C=C/C=C/C=C/C=C/C=C/C=C/[C@H](O[C@@H]2O[C@H](C)[C@@H](O)[C@H](N)[C@@H]2O)C[C@@H]2O[C@](O)(C[C@@H](O)C[C@@H](O)[C@H](O)CC[C@@H](O)C[C@@H](O)CC(=O)O[C@H]1C)C[C@H](O)[C@H]2NC(=O)NNc1ncccc1C(F)(F)F [I-124] | > 200
7 | C[C@@H]1[C@H](O)[C@@H](C)/C=C/C=C/C=C/C=C/C=C/C=C/C=C/[C@H](O[C@@H]2O[C@H](C)[C@@H](O)[C@H](N)[C@@H]2O)C[C@@H]2O[C@](O)(C[C@@H](O)C[C@@H](O)[C@H](O)CC[C@@H](O)C[C@@H](O)CC(=O)O[C@H]1C)C[C@H](O)[C@H]2NC(=O)NNc1ccc(C(F)(F)F)cn1 [I-125] | > 200
8 | C[C@@H]1[C@H](O)[C@@H](C)/C=C/C=C/C=C/C=C/C=C/C=C/C=C/[C@H](O[C@@H]2O[C@H](C)[C@@H](O)[C@H](N)[C@@H]2O)C[C@@H]2O[C@](O)(C[C@@H](O)C[C@@H](O)[C@H](O)CC[C@@H](O)C[C@@H](O)CC(=O)O[C@H]1C)C[C@H](O)[C@H]2NC(=O)NNC(=O)c1ccc(N2CCOCC2)nc1 [I-194] | > 200
9 | C[C@@H]1[C@H](O)[C@@H](C)/C=C/C=C/C=C/C=C/C=C/C=C/C=C/[C@H](O[C@@H]2O[C@H](C)[C@@H](O)[C@H](N)[C@@H]2O)C[C@@H]2O[C@](O)(C[C@@H](O)C[C@@H](O)[C@H](O)CC[C@@H](O)C[C@@H](O)CC(=O)O[C@H]1C)C[C@H](O)[C@H]2NC(=O)NNC(=O)c1ncccc1N [I-197] | > 200
10 | C[C@@H]1[C@H](O)[C@@H](C)/C=C/C=C/C=C/C=C/C=C/C=C/C=C/[C@H](O[C@@H]2O[C@H](C)[C@@H](O)[C@H](N)[C@@H]2O)C[C@@H]2O[C@](O)(C[C@@H](O)C[C@@H](O)[C@H](O)CC[C@@H](O)C[C@@H](O)CC(=O)O[C@H]1C)C[C@H](O)[C@H]2NC(=O)NNC(=O)c1cccnc1N [I-198] | > 200
11 | CCCC(=O)NNC(=O)N[C@H]1[C@@H]2C[C@@H](O[C@@H]3O[C@H](C)[C@@H](O)[C@H](N)[C@@H]3O)/C=C/C=C/C=C/C=C/C=C/C=C/C=C/[C@H](C)[C@@H](O)[C@@H](C)[C@H](C)OC(=O)C[C@H](O)C[C@H](O)CC[C@@H](O)[C@H](O)C[C@H](O)C[C@](O)(C[C@@H]1O)O2 [I-209] | > 200
12 | C[C@@H]1[C@H](O)[C@@H](C)/C=C/C=C/C=C/C=C/C=C/C=C/C=C/[C@H](O[C@@H]2O[C@H](C)[C@@H](O)[C@H](N)[C@@H]2O)C[C@@H]2O[C@](O)(C[C@@H](O)C[C@@H](O)[C@H](O)CC[C@@H](O)C[C@@H](O)CC(=O)O[C@H]1C)C[C@H](O)[C@H]2NC(=O)NNS(=O)(=O)c1c[nH]cn1 [I-214] | > 200
13 | CNC(=S)NNC(=O)N[C@H]1[C@@H]2C[C@@H](O[C@@H]3O[C@H](C)[C@@H](O)[C@H](N)[C@@H]3O)/C=C/C=C/C=C/C=C/C=C/C=C/C=C/[C@H](C)[C@@H](O)[C@@H](C)[C@H](C)OC(=O)C[C@H](O)C[C@H](O)CC[C@@H](O)[C@H](O)C[C@H](O)C[C@](O)(C[C@@H]1O)O2 [I-215] | > 200
14 | C[C@@H]1[C@H](O)[C@@H](C)/C=C/C=C/C=C/C=C/C=C/C=C/C=C/[C@H](O[C@@H]2O[C@H](C)[C@@H](O)[C@H](N)[C@@H]2O)C[C@@H]2O[C@](O)(C[C@@H](O)C[C@@H](O)[C@H](O)CC[C@@H](O)C[C@@H](O)CC(=O)O[C@H]1C)C[C@H](O)[C@H]2NC(=O)NNC(=S)Nc1ccccc1 [I-216] | > 200
15 | C[C@@H]1[C@H](O)[C@@H](C)/C=C/C=C/C=C/C=C/C=C/C=C/C=C/[C@H](O[C@@H]2O[C@H](C)[C@@H](O)[C@H](N)[C@@H]2O)C[C@@H]2O[C@](O)(C[C@@H](O)C[C@@H](O)[C@H](O)CC[C@@H](O)C[C@@H](O)CC(=O)O[C@H]1C)C[C@H](O)[C@H]2NC(=O)NNC(=S)NCCCN1CCOCC1 [I-217] | > 200
16 | C[C@@H]1[C@H](O)[C@@H](C)/C=C/C=C/C=C/C=C/C=C/C=C/C=C/[C@H](O[C@@H]2O[C@H](C)[C@@H](O)[C@H](N)[C@@H]2O)C[C@@H]2O[C@](O)(C[C@@H](O)C[C@@H](O)[C@H](O)CC[C@@H](O)C[C@@H](O)CC(=O)O[C@H]1C)C[C@H](O)[C@H]2NC(=O)NNC(=O)NCC(N)=O [I-220] | > 200
17 | C[C@@H]1[C@H](O)[C@@H](C)/C=C/C=C/C=C/C=C/C=C/C=C/C=C/[C@H](O[C@@H]2O[C@H](C)[C@@H](O)[C@H](N)[C@@H]2O)C[C@@H]2O[C@](O)(C[C@@H](O)C[C@@H](O)[C@H](O)CC[C@@H](O)C[C@@H](O)CC(=O)O[C@H]1C)C[C@H](O)[C@H]2NC(=O)NNC(=O)Nc1ccccn1 [I-221] | > 200
18 | C[C@@H]1[C@H](O)[C@@H](C)/C=C/C=C/C=C/C=C/C=C/C=C/C=C/[C@H](O[C@@H]2O[C@H](C)[C@@H](O)[C@H](N)[C@@H]2O)C[C@@H]2O[C@](O)(C[C@@H](O)C[C@@H](O)[C@H](O)CC[C@@H](O)C[C@@H](O)CC(=O)O[C@H]1C)C[C@H](O)[C@H]2NC(=O)NNC(=O)Nc1cccnn1 [I-224] | > 200
19 | C[C@@H]1[C@H](O)[C@@H](C)/C=C/C=C/C=C/C=C/C=C/C=C/C=C/[C@H](O[C@@H]2O[C@H](C)[C@@H](O)[C@H](N)[C@@H]2O)C[C@@H]2O[C@](O)(C[C@@H](O)C[C@@H](O)[C@H](O)CC[C@@H](O)C[C@@H](O)CC(=O)O[C@H]1C)C[C@H](O)[C@H]2NC(=O)NNC(=O)NC[C@H](O)CO [I-225] | > 200
20 | CNC(=O)NNC(=O)N[C@H]1[C@@H]2C[C@@H](O[C@@H]3O[C@H](C)[C@@H](O)[C@H](N)[C@@H]3O)/C=C/C=C/C=C/C=C/C=C/C=C/C=C/[C@H](C)[C@@H](O)[C@@H](C)[C@H](C)OC(=O)C[C@H](O)C[C@H](O)CC[C@@H](O)[C@H](O)C[C@H](O)C[C@](O)(C[C@@H]1O)O2 [I-228] | > 200
21 | C[C@@H]1[C@H](O)[C@@H](C)/C=C/C=C/C=C/C=C/C=C/C=C/C=C/[C@H](O[C@@H]2O[C@H](C)[C@@H](O)[C@H](N)[C@@H]2O)C[C@@H]2O[C@](O)(C[C@@H](O)C[C@@H](O)[C@H](O)CC[C@@H](O)C[C@@H](O)CC(=O)O[C@H]1C)C[C@H](O)[C@H]2NC(=O)NNC(=O)NCC(O)CCl (some centres unmarked) [I-229] | > 200
22 | C[C@@H]1[C@H](O)[C@@H](C)/C=C/C=C/C=C/C=C/C=C/C=C/C=C/[C@H](O[C@@H]2O[C@H](C)[C@@H](O)[C@H](N)[C@@H]2O)C[C@@H]2O[C@](O)(C[C@@H](O)C[C@@H](O)[C@H](O)CC[C@@H](O)C[C@@H](O)CC(=O)O[C@H]1C)C[C@H](O)[C@H]2NC(=O)NNC(=O)C(C)(C)CO [I-232] | > 200
23 | C[C@@H]1[C@H](O)[C@@H](C)/C=C/C=C/C=C/C=C/C=C/C=C/C=C/[C@H](O[C@@H]2O[C@H](C)[C@@H](O)[C@H](N)[C@@H]2O)C[C@@H]2O[C@](O)(C[C@@H](O)C[C@@H](O)[C@H](O)CC[C@@H](O)C[C@@H](O)CC(=O)O[C@H]1C)C[C@H](O)[C@H]2NC(=O)NNC(=O)C1CCC(O)CC1 (some centres unmarked) [I-239] | > 200
